For orientation: IC50 means the midpoint of a concentration-inhibition curve.

The results in this text go back to patent publication US10954214B2 (Janssen Pharmaceutica NV, priority 2016, dated 2021).

The target in assay [1] is full-length MALT1 protein (Strep-MALT1(1-824)-His) (Homo sapiens (Human), UniProt Q9UDY8). In words: MALT1 Biochemical Protease Assay (Ac-LRSR-AMC substrate). To be noted: 10 nM FL MALT1, 200 μM Ac-LRSR-AMC, 4 h at RT; read-out: MALT1_Biochemical activity (Ac-LRSR-amc) IC50. The essentials:
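Full-length MALT1 pre-incubated with compounds (30 μM to 0.5 nM, 11 threefold steps) for 50 min at RT. After Ac-LRSR-AMC was added, the reaction ran 4 h at RT and AMC fluorescence was read. IC50 and Hill slope from curve fitting against no-enzyme and no-compound controls.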

Assay [2] deals with IL10 secretion by OCI-LY3 ABC-DLBCL cells. Briefly: Human IL10 Mesoscale assay (OCI-LY3). The class given is cell-based. The conditions noted are these: Homo sapiens, 24 h. In short, it runs like this: (§1)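 Compounds tested from 15 μM to 58.6 nM (twofold, 9 concentrations) on 100,000 cells per well over 24 h at 37° C, without beta-mercaptoethanol. Secreted cytokine in supernatant detected by MSD electrochemiluminescence; scaling used DMSO as maximum and RN486 as full inhibition.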

The test system of assay [3] is IL6 secretion by OCI-LY3 ABC-DLBCL cells. In words: Human IL6 Mesoscale assay (OCI-LY3). The class given is cell-based. The conditions noted are these: Homo sapiens, 24 h. The essentials:
as §1

Sequence of full-length MALT1 protein (Strep-MALT1(1-824)-His) (Q9UDY8 whole entry): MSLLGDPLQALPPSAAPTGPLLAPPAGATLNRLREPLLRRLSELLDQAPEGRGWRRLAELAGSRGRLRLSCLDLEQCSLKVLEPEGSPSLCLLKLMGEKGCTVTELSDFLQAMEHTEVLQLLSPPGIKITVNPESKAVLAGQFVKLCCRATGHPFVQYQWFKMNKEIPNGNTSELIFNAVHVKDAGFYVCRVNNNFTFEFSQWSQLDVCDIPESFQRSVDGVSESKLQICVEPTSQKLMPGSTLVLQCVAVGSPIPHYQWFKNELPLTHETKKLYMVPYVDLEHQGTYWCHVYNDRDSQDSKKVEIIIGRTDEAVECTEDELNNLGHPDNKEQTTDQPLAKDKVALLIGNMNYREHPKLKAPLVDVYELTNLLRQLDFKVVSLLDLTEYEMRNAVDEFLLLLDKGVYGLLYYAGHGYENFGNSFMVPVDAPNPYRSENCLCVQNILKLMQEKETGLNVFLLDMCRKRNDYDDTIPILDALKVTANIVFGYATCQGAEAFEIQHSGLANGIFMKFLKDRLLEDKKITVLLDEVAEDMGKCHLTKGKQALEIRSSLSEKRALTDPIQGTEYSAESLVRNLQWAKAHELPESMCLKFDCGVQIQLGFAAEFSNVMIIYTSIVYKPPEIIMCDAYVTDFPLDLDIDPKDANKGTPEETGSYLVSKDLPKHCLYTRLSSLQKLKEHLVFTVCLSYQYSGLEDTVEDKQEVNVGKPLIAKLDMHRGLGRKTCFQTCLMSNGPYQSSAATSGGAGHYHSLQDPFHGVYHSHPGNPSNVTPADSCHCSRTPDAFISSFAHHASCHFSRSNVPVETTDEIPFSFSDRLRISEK

Regarding `Cc1cc(NC(=O)c2cnn(-c3cccc4scnc34)c2C(F)(F)F)c(C)nc1-n1nccn1` [Cpd 300, 1-(benzo[d]thiazol-4-yl)-N-(2,5-dimethyl-6-(2H-1,2,3-triazol-2-yl)pyridin-3-yl)-5-(trifluoromethyl)-1H-pyrazole-4-carboxamide], the IC50 in assay [1] worked out at 4170 nM; in assay [2], 339 nM; in assay [3], 525 nM.

As to `O=C(Nc1cc(Cl)c(-n2nccn2)cc1F)c1cnn(-c2cccc3nnsc23)c1C(F)(F)F` [Cpd 301, 1-(benzo[d][1,2,3]thiadiazol-7-yl)-N-(5-chloro-2-fluoro-4-(2H-1,2,3-triazol-2-yl)phenyl)-5-(trifluoromethyl)-1H-pyrazole-4-carboxamide], the IC50 in assay [1] stood at 141 nM; in assay [2] it was 417 nM; in assay [3], 501 nM.

For the molecule `O=C(Nc1cnc(-c2nn[nH]n2)c(Cl)c1)c1cnn(-c2cccc3ncccc23)c1C(F)(F)F` [Cpd 307, N-(5-chloro-6-(2H-tetrazol-5-yl)pyridin-3-yl)-1-(quinolin-5-yl)-5-(trifluoromethyl)-1H-pyrazole-4-carboxamide], the IC50 in assay [1] is 58 nM; in assay [2] it was 427 nM; in assay [3], 447 nM.

As for `O=C(Nc1cnc(-c2cn[nH]n2)c(Cl)c1)c1cnn(-c2cccc3ncccc23)c1C(F)(F)F` [Cpd 309, N-(5-chloro-6-(2H-1,2,3-triazol-4-yl)pyridin-3-yl)-1-(quinolin-5-yl)-5-(trifluoromethyl)-1H-pyrazole-4-carboxamide], the results for the IC50 in assay [1], in assay [2] and in assay [3] were 55 nM, 117 nM and 151 nM, respectively.

As to `Cc1cc(-n2nccn2)c(Cl)cc1NC(=O)c1cnn(-c2cncc3c(F)cccc23)c1C(F)(F)F` [Cpd 317, N-(5-chloro-2-methyl-4-(2H-1,2,3-triazol-2-yl)phenyl)-1-(8-fluoroisoquinolin-4-yl)-5-(trifluoromethyl)-1H-pyrazole-4-carboxamide], the IC50 in assay [1] amounted to 65 nM; in assay [2], 66 nM; in assay [3], 72 nM.

Take `Cc1nc(-n2nccn2)c(Cl)cc1NC(=O)c1cnn(-c2ccc(C)n3nccc23)c1C(F)(F)F` [Cpd 318, N-(5-chloro-2-methyl-6-(2H-1,2,3-triazol-2-yl)pyridin-3-yl)-1-(7-methylpyrazolo[1,5-a]pyridin-4-yl)-5-(trifluoromethyl)-1H-pyrazole-4-carboxamide]: the values for the IC50 in assay [1], in assay [2] and in assay [3] were 83 nM, 138 nM and 162 nM, respectively.

As to `O=C(Nc1ccnc(C(F)(F)F)c1)c1cnn(-c2cccn3nccc23)c1C(F)(F)F` [Cpd 319, 1-(pyrazolo[1,5-a]pyridin-4-yl)-5-(trifluoromethyl)-N-(2-(trifluoromethyl)pyridin-4-yl)-1H-pyrazole-4-carboxamide], the IC50 in assay [1] came to 107 nM; in assay [2] it was 18 nM; in assay [3] it was 20 nM.

On to `O=C(Nc1ccnc(C(F)(F)F)c1)c1cnn(-c2cncc3c(F)cccc23)c1C(F)(F)F` [Cpd 320, 1-(8-fluoroisoquinolin-4-yl)-5-(trifluoromethyl)-N-(2-(trifluoromethyl)pyridin-4-yl)-1H-pyrazole-4-carboxamide], for which the IC50 turned out to be 69 nM in assay [1], 93 nM in assay [2] and 182 nM in assay [3].

In the case of `Cc1nc(-n2nccn2)c(Cl)cc1NC(=O)c1cnn(-c2cncc3sccc23)c1C(F)(F)F` [Cpd 321, N-(5-chloro-2-methyl-6-(2H-1,2,3-triazol-2-yl)pyridin-3-yl)-1-(thieno[2,3-c]pyridin-4-yl)-5-(trifluoromethyl)-1H-pyrazole-4-carboxamide], the IC50 in assay [1] amounted to 21 nM; in assay [2], 49 nM; in assay [3] it was 66 nM.

In the case of `CNc1ncc(-n2ncc(C(=O)Nc3cnc(-n4nccn4)c(Cl)c3)c2C(F)(F)F)c2ccccc12` [Cpd 323, N-(5-chloro-6-(2H-1,2,3-triazol-2-yl)pyridin-3-yl)-1-(1-(methylamino)isoquinolin-4-yl)-5-(trifluoromethyl)-1H-pyrazole-4-carboxamide], the IC50 was 174 nM in assay [1], 141 nM in assay [2] and 195 nM in assay [3].

Turning to `CNc1ncc(-n2ncc(C(=O)Nc3cnc(-n4nccn4)c(Cl)c3)c2C(F)(F)F)c2cccc(F)c12` [Cpd 324, N-(5-chloro-6-(2H-1,2,3-triazol-2-yl)pyridin-3-yl)-1-(8-fluoro-1-(methylamino)isoquinolin-4-yl)-5-(trifluoromethyl)-1H-pyrazole-4-carboxamide], the IC50 was determined as 117 nM in assay [1], 16 nM in assay [2] and 40 nM in assay [3].

Consider `CNc1ncc(-n2ncc(C(=O)Nc3cnc(-n4nccn4)c(C#N)c3)c2C(F)(F)F)c2cccc(F)c12` [Cpd 325, N-(5-cyano-6-(2H-1,2,3-triazol-2-yl)pyridin-3-yl)-1-(8-fluoro-1-(methylamino)isoquinolin-4-yl)-5-(trifluoromethyl)-1H-pyrazole-4-carboxamide], for which the IC50 in assay [1] was 55 nM; in assay [2], 794 nM; in assay [3], 646 nM.

As to `Nc1ncc(-n2ncc(C(=O)Nc3cc(Cl)c(-n4nccn4)cc3F)c2C(F)(F)F)c2ccccc12` [Cpd 327, 1-(1-aminoisoquinolin-4-yl)-N-(5-chloro-2-fluoro-4-(2H-1,2,3-triazol-2-yl)phenyl)-5-(trifluoromethyl)-1H-pyrazole-4-carboxamide], the IC50 in assay [1] was 79 nM; in assay [2], 100 nM; in assay [3] it was 129 nM.

With `N#Cc1cc(NC(=O)c2cnn(-c3cccc4c(N)nccc34)c2C(F)(F)F)cnc1-n1nccn1` [Cpd 328, 1-(1-aminoisoquinolin-5-yl)-N-(5-cyano-6-(2H-1,2,3-triazol-2-yl)pyridin-3-yl)-5-(trifluoromethyl)-1H-pyrazole-4-carboxamide], the figures for the IC50 in assay [1], in assay [2] and in assay [3] were 2570 nM, 589 nM and 741 nM, respectively.

With `Nc1nccc2c(-n3ncc(C(=O)Nc4cnc(-n5nccn5)c(Cl)c4)c3C(F)(F)F)cccc12` [Cpd 330, 1-(1-aminoisoquinolin-5-yl)-N-(5-chloro-6-(2H-1,2,3-triazol-2-yl)pyridin-3-yl)-5-(trifluoromethyl)-1H-pyrazole-4-carboxamide], the IC50 was determined as 646 nM in assay [1], 25 nM in assay [2] and 21 nM in assay [3].

As to `Nc1ccc2c(-n3ncc(C(=O)Nc4cnc(-n5nccn5)c(Cl)c4)c3C(F)(F)F)cccc2n1` [Cpd 331, 1-(2-aminoquinolin-5-yl)-N-(5-chloro-6-(2H-1,2,3-triazol-2-yl)pyridin-3-yl)-5-(trifluoromethyl)-1H-pyrazole-4-carboxamide], the values for the IC50 in assay [1], in assay [2] and in assay [3] were 501 nM, 339 nM and 309 nM, respectively.

`N#Cc1cc(NC(=O)c2cnn(-c3cccc4nc(N)ccc34)c2C(F)(F)F)cnc1-n1nccn1` [Cpd 332, 1-(2-aminoquinolin-5-yl)-N-(5-cyano-6-(2H-1,2,3-triazol-2-yl)pyridin-3-yl)-5-(trifluoromethyl)-1H-pyrazole-4-carboxamide]: the figures for the IC50 in assay [1], in assay [2] and in assay [3] were 417 nM, 44 nM and 48 nM, respectively.

With `Cc1nc(-c2ccn(C)n2)c(Cl)cc1NC(=O)c1cnn(-c2cnc(N)c3ccccc23)c1C(F)(F)F` [Cpd 333, 1-(1-aminoisoquinolin-4-yl)-N-(5-chloro-2-methyl-6-(1-methyl-1H-pyrazol-3-yl)pyridin-3-yl)-5-(trifluoromethyl)-1H-pyrazole-4-carboxamide], the IC50 in assay [1] was 245 nM; in assay [2] it was 123 nM; in assay [3], 155 nM.

`Cc1cc(NC(=O)c2cnn(-c3cnc(N)c4ccccc34)c2C(F)(F)F)c(C)nc1-n1nccn1` [Cpd 334, 1-(1-aminoisoquinolin-4-yl)-N-(2,5-dimethyl-6-(2H-1,2,3-triazol-2-yl)pyridin-3-yl)-5-(trifluoromethyl)-1H-pyrazole-4-carboxamide]: the IC50 came to 417 nM in assay [1], 251 nM in assay [2] and 186 nM in assay [3].

`Cc1cc(-n2nccn2)c(Cl)cc1NC(=O)c1cnn(-c2cnc(N)c3ccccc23)c1C(F)(F)F` [Cpd 335, 1-(1-aminoisoquinolin-4-yl)-N-(5-chloro-2-methyl-4-(2H-1,2,3-triazol-2-yl)phenyl)-5-(trifluoromethyl)-1H-pyrazole-4-carboxamide]: the values for the IC50 in assay [1], in assay [2] and in assay [3] were 174 nM, 60 nM and 132 nM, respectively.

In the case of `Cc1nc(-n2cccn2)c(Cl)cc1NC(=O)c1cnn(-c2cnc(N)c3ccccc23)c1C(F)(F)F` [Cpd 336, 1-(1-aminoisoquinolin-4-yl)-N-(5-chloro-2-methyl-6-(1H-pyrazol-1-yl)pyridin-3-yl)-5-(trifluoromethyl)-1H-pyrazole-4-carboxamide], the results for the IC50 in assay [1], in assay [2] and in assay [3] were 214 nM, 117 nM and 209 nM, respectively.

As to `Cc1cc(-n2nccn2)c(C#N)cc1NC(=O)c1cnn(-c2cnc(N)c3ccccc23)c1C(F)(F)F` [Cpd 337, 1-(1-aminoisoquinolin-4-yl)-N-(5-cyano-2-methyl-4-(2H-1,2,3-triazol-2-yl)phenyl)-5-(trifluoromethyl)-1H-pyrazole-4-carboxamide], the IC50 in assay [1] amounted to 141 nM; in assay [2], 182 nM; in assay [3], 209 nM.
